Data set [1] relates to Human stratum corneum. Conditions: tape biopsies soaked 30 minutes at room temperature; against purified water controls; tested in triplicate; Sulfate.
Description: Skin mildness was evaluated by measuring the damage caused by the biocide on the outer portion of the stratum corneum, and specifically the removal of the lipid component of the stratum corneum.
Human stratum corneum was harvested from adult legs using D-Squame tape biopsies (Cuderm Corporation, Dallas Tex.). Each biopsy harvested consisted of about 7 to 8 pulls from multiple sites on a subject's lower leg. After harvesting, the tapes containing the biopsies were soaked in the test biocide (2 mL) in covered six well tissue cultured dishes for 30 minutes at room temperature. Each biocide formulation was tested in triplicate in adjacent wells.
After soaking the tape strips in the biocide, the tape strips were removed and washed for 3 minutes with cold tap water, and dried at room temperature. After drying, the tape strips containing the biopsies were completely immersed in fushin-toluidine blue dye (Polychrome Multiple Stain, PMS: Delasco, Council Bluff, Iowa.) The immersion continued for 3 minutes after which the tape strips were removed and washed for 3 minutes in cold tap water. After washing, the tape strips were allowed to dry completely at room temperature.
The color of the dried samples was measured by color reflectance using a Minolta CR 5000 (Minolta, Osaka, Japan) spectrophotometer. The color measurements recorded the luminance (L*) and chromaticity through Chroma C* described by the equation (a^*2+b^*2)^½. The color differentials between test materials and controls were calculated according to: [(ΔL*)^2+(ΔC*)^2]^1/2=ΔE*ab. The measurements were taken against controls which were purified water.
The subject of data set [2] is Staphylococcus aureus (ATCC 6538). As to the kind of experiment: Alamar Blue reduction biocidal assay, 5 minute exposure. It counts as cell-based. The note with it: for IC50: Staphylococcus aureus, ATCC6538, 5 min, read-out: 50% Inhibitory Concentration (IC50), S. aureus, 50% inhibition of Alamar Blue reduction; for IC50 / 50% Inhibitory Concentration (IC50), S. aureus: 5 minutes incubation at room temperature; for 50% Inhibitory Concentration (IC50), S. aureus: 50% inhibition of Alamar Blue reduction. As for the experimental part: (§1) In this Example, the antimicrobial efficacy (in terms of IC50 data) of several different formulations against Staphylococcus aureus, Staphylococcus epidermidis, and Escherichia coli was evaluated. The formulations tested comprised a formulation based upon the present invention as well as several other formulations comprised of various organic acids and/or surfactants, as well as surfactants alone. Microorganism Preparation: Lyophilized cultures of Escherichia coli (ATCC 8739), Staphylococcus aureus (ATCC 6538), and Staphylococcus epidermidis (ATCC 12,228) were obtained from the American Type Culture Collection (ATCC) (Rockville, Md.). All three cultures were reconstituted according to ATCC specifications. Aliquots (0.5 mL) of reconstituted 24 hour broth growth were frozen and held at −80° C. until needed. Working cultures were prepared weekly by streaking a loop of frozen culture onto tryptic soy agar plates (TSA) (Becton Dickinson Microbiology Systems, Cockeysville, Md.) and then incubating overnight at 37° C. After incubation, the cultures were held at 4° C. for not more than about 5 days. One day prior to testing, a fresh TSA plate was prepared with a sterile swab to achieve a lawn of growth and incubated at 37° C. for about 24 hours. […] Cell concentrations were determined in triplicate by taking optical density readings of a sample (200 microliters) with a ThermoMax microplate reader spectrophotometer (Molecular Devices) at 650 nm. From a standard curve the appropriate volume of the PBW containing the cells was determined to prepare 1.1×10^9 CFU/mL in the PBW. Exact cell numbers were confirmed by spread plating on TSA and incubating at 37° C. Assay Protocol: To all wells of a Microflour®2 96 well microtiter plate (8 Rows by 12 Columns) (Dynex Technologies, Chantilly, Va.) was added 25 microliters of filtered, sterilized water (Millipore Continental Water Systems, Bedford Mass.). […] After mixing, 25 microliters was transferred from each well in Row A to its corresponding well in Row B to produce a new 50 microliter mixture of sample formulation and water having one half the concentration of sample formulation as that of Row A. The Row B mixtures were aspirated 3 times to thoroughly mix the sample formulation and water combination. These serial dilutions continued down the Rows until reaching Row G (for a total of 6 dilutions from the original plates in Row A). After thorough mixing of Row G well contents, 25 microliters of each well in Row G (a total of 12) was discarded to produce a Row G having 12 columns each containing 25 microliters. […] After serial dilution, bacterial cells were introduced into the wells. […] In columns 4, 5, and 6 of each Row, 25 microliters (about 2.75×10^7 cells) of Staphylococcus epidermidis as prepared above was introduced and mixed. In columns 7, 8, and 9 of each Row, 25 microliters (about 2.75×10^7 cells) of Escherichia coli as prepared above was introduced and mixed. The sample formulations as prepared above were appropriately diluted (if necessary) prior to the introduction of the sample formulations into Row A. The dilutions were made such that, after the sample formulation was introduced into Row A, and after the cells were introduced into Row A (i.e., after reducing the initial concentration of the sample formulation by 50% two times), the initial concentrations were as follows: After the addition of the cells, incubation proceeded (5 minutes) at room temperature. After the incubation period, a 1.6 M phosphate buffer (50 microliters) was added to all wells to neutralize the biocide. Then, 3×Letheen broth (50 microliters) (Difco Laboratories, Detroit, Mich.) and Alamar Blue (25 microliters at room temperature) (AccuMed International, Westlake, Ohio) were added to each well. A positive control was also utilized in the experiment. The positive control consisted of adding sterile Milli-Q water to the wells in place of sample formulation. […]
On the technique in general: Alamar Blue is a resazurin reagent that responds to reducing activity.

The subject of data set [3] is Staphylococcus epidermidis (ATCC 12,228). The data set is described as above. Conditions: for IC50: Staphylococcus epidermidis, ATCC12, 5 min, read-out: 50% Inhibitory Concentration (IC50), S. epidermidis, 50% inhibition of Alamar Blue reduction. The data set is classed as cell-based. As for the experimental part: as §1
The subject of data set [4] is Escherichia coli (ATCC 8739). The data set is described as above. The data set is classed as cell-based. Conditions: for IC50: Escherichia coli, ATCC8739, ATCC 8739, 5 min, read-out: 50% Inhibitory Concentration (IC50), E. coli, 50% inhibition of Alamar Blue reduction. As for the experimental part: as §1
The mark [5] stands for this setting: 5 minutes incubation at room temperature.
[6] abbreviates: 50% inhibition of Alamar Blue reduction, 5 minutes incubation at room temperature, listed as #4, sulfate.

As for `CCCCCCCCCCCCOS(=O)(=O)[O-].[Na+]` [Formulation 4, Sodium Dodecyl Sulfate], the “ΔE*ab (color differential of dye-stained stratum corneum biopsies)” value in data set [1] was 34.41.
In the case of `O=C(O)CC(O)(CC(=O)O)C(=O)O` [Biocide #1, Citric Acid], the IC50 was 2200 µg/mL in data set [2], 710 µg/mL in data set [3] (setting [5]) and greater than 6300 µg/mL in data set [4] (setting [5]).
As for `CCCCCCCCCCCCOS(=O)(=O)[O-].[Na+]` [Biocide #4, sodium dodecyl sulfate], the “inhibition / biocidal activity in words, S. aureus” value in data set [2] is “exhibited inhibition”. Further, the “50% Inhibitory Concentration (IC50), S. aureus” value was 480 µg/mL in data set [2] (listed as #4, sulfate) and “less than 1 g/L” in data set [2] (listed as sodium dodecyl sulfate, sulfate). Further, the “inhibition in words, S. epidermidis” value in data set [3] is on record as “exhibited inhibition”. Moreover, in data set [3] (setting [6]), the “50% Inhibitory Concentration (IC50), S. epidermidis” value was determined as 950 µg/mL. Also, the IC50 in data set [3] (setting [5]) was less than 1000 µg/mL; in data set [4] (setting [5]) it was roughly 79000 µg/mL. Besides, the “inhibition in words, E. coli” value in data set [4] is given as “exhibited inhibition”. Further, in data set [4] (setting [6]), the “50% Inhibitory Concentration (IC50), E. coli” value was 79500 µg/mL.
Turning to `CCCCCCCCCCCCOS(=O)(=O)[O-].[Na+]` [Formulation 6, Sodium Dodecyl Sulfate], the “ΔE*ab (color differential of dye-stained stratum corneum biopsies)” value in data set [1] is 3.36.
With `O=C(O)CC(O)C(=O)O` (stereo not drawn) [Biocide #2, Malic Acid], the IC50 in data set [2] came to 1300 µg/mL; in data set [3] (setting [5]), 240 µg/mL; in data set [4] (setting [5]) it was 6000 µg/mL.
With `CCCCCCCCCCCCOS(=O)(=O)[O-].[Na+]` [Formulation 5, Sodium Dodecyl Sulfate], the “ΔE*ab (color differential of dye-stained stratum corneum biopsies)” value in data set [1] is on record as 20.76.
